According to patent US20240269139A1, “COMPOUNDS FOR TARGETED PROTEIN DEGRADATION OF KINASES” (DANA-FARBER CANCER INSTITUTE, INC., priority 2020, published 2024):
Entries after “also recorded” stand apart in the source; their conditions may differ. Like-named read-outs stand apart in the source and are kept apart here.

Assays:
[1] = test system: protein kinases in MOLT-4 cells; assay: Whole cell quantitative proteomics in MOLT-4 cells; settings: MOLT-4, 1 μM, 5 h (FIG. 1J)
Description: Whole cell multiplexed quantitative proteomics was employed to measure changes in abundance of the proteome in response to treatment with each of the kinase degrader molecules relative to DMSO (Table 1, Appendix I).
Cells were treated with DMSO (biological triplicate) or degrader at indicated dose and time and cells were harvested by centrifugation. […] Precipitated protein was resuspended in 4 M Urea, 50 mM HEPES pH 7.4, followed by dilution to 1 M urea with the addition of 200 mM EPPS, pH 8. Proteins were first digested with LysC (1:50: enzyme:protein) for 12 hours at room temperature. The LysC digestion was diluted to 0.5 M Urea with 200 mM EPPS pH 8 followed by digestion with trypsin (1:50; enzyme:protein) for 6 hours at 37° C. Tandem mass tag (TMT) reagents (Thermo Fisher Scientific) were dissolved in anhydrous acetonitrile (ACN) according to manufacturer's instructions. […] The 10, 11, or 16-plex labeling reactions were performed for 1.5 hours at room temperature and the reaction quenched by the addition of hydroxylamine to a final concentration of 0.3% for 15 minutes at room temperature. The sample channels were combined at a 1:1 ratio, desalted using C18 solid phase extraction cartridges (Waters®) and analyzed by LC-MS for channel ratio comparison. Samples were then combined using the adjusted volumes determined in the channel ratio analysis and dried down in a speed vacuum. The combined sample was then resuspended in 1% formic acid, and acidified (pH 2-3) before being subjected to desalting with C18 SPE (Sep-Pak®, Waters®). Samples were then offline fractionated into 96 fractions by high pH reverse-phase HPLC (Agilent® LC1260) through an aeris peptide xb-c18 column (Phenomenex®) with mobile phase A containing 5% acetonitrile and 10 mM NH4HCO3 in LC-MS grade H2O, and mobile phase B containing 90% acetonitrile and 10 mM NH4HCO3 in LC-MS grade H2O (both pH 8.0). The 96 resulting fractions were then pooled in a non-continuous manner into 24 fractions and desalted using C18 solid phase extraction plates (SOLA®, Thermo Fisher Scientific) followed by subsequent mass spectrometry analysis.
Data were collected using an Orbitrap Fusion™ Lumos™ mass spectrometer (Thermo Fisher Scientific, San Jose, CA, USA) coupled with a Proxeon EASY-nLC™ 1200 LC pump (Thermo Fisher Scientific) or an Orbitrap Eclipse™ Tribrid™ mass spectrometer (Thermo Fisher Scientific, San Jose, CA, USA) coupled with an UltiMate™ 3000 RSLCnano System. Peptides were separated on an EasySpray™ ES803a/ES803a.rev2 75 μm inner diameter microcapillary column (ThermoFisher Scientific).
Data dependent MS2 spectra were acquired in the ion trap with a normalized collision energy (NCE) set at 35%, AGC target set to 1.8×10^4 and a maximum injection time of 120 ms. MS3 scans were acquired in the Orbitrap with HCD collision energy set to 55%. AGC target set to 2×10^5, maximum injection time of 150 ms, resolution at 50,000 and with a maximum synchronous precursor selection (SPS) precursors set to 10.
Proteome Discoverer™ 2.1, 2.2 or 2.4 (Thermo Fisher Scientific) was used for .RAW file processing and controlling peptide and protein level false discovery rates, assembling proteins from peptides, and protein quantification from peptides.

[2] = biological target: protein kinases (human kinome) (Homo sapiens, UniProt Q00537); format: cell-based
Sequence of protein kinases (human kinome) (Homo sapiens, UniProt Q00537) (Q00537 whole entry): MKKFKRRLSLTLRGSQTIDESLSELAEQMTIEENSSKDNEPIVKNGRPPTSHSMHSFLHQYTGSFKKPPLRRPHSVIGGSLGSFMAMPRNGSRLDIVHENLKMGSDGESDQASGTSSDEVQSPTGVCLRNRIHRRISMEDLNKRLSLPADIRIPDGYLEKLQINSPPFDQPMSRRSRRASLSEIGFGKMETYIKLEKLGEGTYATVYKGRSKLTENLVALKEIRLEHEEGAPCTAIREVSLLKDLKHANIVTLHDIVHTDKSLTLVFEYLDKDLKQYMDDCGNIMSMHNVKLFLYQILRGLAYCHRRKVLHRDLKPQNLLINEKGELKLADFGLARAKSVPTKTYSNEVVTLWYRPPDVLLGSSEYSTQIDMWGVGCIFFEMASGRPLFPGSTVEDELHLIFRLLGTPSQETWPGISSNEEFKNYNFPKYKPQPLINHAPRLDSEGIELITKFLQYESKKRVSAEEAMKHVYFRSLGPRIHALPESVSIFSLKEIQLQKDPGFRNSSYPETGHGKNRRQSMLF

[3] = test system: protein kinases (human kinome); format: cell-based; settings: for logFC GSK3B: experiment wp017
[4] = biological target: protein kinases (human kinome) (Homo sapiens, UniProt O94921); format: cell-based
Sequence of protein kinases (human kinome) (Homo sapiens, UniProt O94921) (O94921 whole entry): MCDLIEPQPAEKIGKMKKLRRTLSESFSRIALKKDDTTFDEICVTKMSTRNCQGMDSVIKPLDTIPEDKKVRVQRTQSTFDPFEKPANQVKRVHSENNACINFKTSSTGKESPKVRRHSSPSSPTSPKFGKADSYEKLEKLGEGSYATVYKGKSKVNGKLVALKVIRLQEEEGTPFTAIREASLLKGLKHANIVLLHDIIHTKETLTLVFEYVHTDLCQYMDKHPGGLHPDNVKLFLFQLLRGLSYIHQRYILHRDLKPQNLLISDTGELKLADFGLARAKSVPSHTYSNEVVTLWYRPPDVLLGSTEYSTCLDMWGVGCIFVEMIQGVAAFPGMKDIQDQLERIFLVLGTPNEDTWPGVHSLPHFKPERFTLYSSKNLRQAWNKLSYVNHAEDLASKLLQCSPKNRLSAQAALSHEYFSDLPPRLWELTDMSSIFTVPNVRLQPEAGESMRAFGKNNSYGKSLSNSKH

[5] = biological target: T1, protein kinases (human kinome) (Homo sapiens, UniProt Q8TBX8); format: cell-based; settings: PIP4K2C Q8TBX8-1; experiment wp017
T1 sequence (Q8TBX8 1-421): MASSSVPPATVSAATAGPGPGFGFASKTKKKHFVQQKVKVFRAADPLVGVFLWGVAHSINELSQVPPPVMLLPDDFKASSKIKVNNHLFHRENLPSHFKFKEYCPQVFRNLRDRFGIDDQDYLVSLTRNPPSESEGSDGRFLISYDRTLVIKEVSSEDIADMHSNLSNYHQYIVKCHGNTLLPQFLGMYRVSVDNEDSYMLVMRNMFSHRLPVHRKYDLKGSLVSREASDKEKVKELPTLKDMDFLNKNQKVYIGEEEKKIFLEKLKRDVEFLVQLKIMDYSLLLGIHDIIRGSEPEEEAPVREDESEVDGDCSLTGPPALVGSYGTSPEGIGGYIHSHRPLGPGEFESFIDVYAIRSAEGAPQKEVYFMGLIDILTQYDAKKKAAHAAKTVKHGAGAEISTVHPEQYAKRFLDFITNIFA

[6] = biological target: protein kinases (human kinome) (Homo sapiens, UniProt P48730); format: cell-based
Sequence of protein kinases (human kinome) (Homo sapiens, UniProt P48730) (P48730 whole entry): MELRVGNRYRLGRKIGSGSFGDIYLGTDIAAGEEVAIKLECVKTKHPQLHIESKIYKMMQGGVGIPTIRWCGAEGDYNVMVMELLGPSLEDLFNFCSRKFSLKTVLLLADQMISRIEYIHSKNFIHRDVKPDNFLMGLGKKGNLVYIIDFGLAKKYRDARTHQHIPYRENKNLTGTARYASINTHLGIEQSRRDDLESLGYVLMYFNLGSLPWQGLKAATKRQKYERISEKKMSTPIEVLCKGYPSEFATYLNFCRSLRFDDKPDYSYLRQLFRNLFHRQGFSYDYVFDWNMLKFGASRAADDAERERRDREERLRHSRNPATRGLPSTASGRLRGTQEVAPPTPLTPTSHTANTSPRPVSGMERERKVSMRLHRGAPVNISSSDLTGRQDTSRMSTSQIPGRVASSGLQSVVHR

[7] = biological target: protein kinases (human kinome) (Homo sapiens, UniProt Q9P1W9); format: cell-based
Sequence of protein kinases (human kinome) (Homo sapiens, UniProt Q9P1W9) (Q9P1W9 whole entry): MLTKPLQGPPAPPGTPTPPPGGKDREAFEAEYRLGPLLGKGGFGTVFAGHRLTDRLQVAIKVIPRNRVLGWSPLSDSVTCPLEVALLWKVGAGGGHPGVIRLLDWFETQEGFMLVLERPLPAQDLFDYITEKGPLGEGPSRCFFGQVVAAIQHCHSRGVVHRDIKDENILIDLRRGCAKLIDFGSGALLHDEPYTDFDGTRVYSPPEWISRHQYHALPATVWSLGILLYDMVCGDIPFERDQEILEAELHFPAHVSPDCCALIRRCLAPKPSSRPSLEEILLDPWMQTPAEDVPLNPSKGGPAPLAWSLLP

[8] = biological target: T2, protein kinases (human kinome) (Homo sapiens, UniProt O60285); format: cell-based; settings: NUAK1 (O60285), experiment wp017
T2 sequence (O60285 1-661): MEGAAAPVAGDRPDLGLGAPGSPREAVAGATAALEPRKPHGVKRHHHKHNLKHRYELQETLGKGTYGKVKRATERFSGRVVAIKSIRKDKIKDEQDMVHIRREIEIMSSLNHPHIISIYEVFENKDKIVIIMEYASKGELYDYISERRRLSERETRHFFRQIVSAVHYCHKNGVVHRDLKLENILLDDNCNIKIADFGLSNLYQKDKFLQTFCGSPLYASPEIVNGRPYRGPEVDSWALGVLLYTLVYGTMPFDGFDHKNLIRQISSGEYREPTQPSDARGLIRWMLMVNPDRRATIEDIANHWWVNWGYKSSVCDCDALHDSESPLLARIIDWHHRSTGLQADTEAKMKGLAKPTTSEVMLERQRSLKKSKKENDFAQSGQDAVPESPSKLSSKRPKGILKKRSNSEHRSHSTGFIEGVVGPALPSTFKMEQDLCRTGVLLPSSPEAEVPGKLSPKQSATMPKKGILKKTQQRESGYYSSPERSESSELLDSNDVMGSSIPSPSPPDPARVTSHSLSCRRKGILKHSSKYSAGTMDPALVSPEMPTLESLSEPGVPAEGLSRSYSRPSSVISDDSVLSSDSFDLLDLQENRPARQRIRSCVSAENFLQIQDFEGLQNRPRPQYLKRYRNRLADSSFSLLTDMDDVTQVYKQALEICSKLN

[9] = biological target: protein kinases (human kinome) (Homo sapiens, UniProt P49840); format: cell-based; settings: GSK3A P49840; experiment wp017
Sequence of protein kinases (human kinome) (Homo sapiens, UniProt P49840) (P49840 whole entry): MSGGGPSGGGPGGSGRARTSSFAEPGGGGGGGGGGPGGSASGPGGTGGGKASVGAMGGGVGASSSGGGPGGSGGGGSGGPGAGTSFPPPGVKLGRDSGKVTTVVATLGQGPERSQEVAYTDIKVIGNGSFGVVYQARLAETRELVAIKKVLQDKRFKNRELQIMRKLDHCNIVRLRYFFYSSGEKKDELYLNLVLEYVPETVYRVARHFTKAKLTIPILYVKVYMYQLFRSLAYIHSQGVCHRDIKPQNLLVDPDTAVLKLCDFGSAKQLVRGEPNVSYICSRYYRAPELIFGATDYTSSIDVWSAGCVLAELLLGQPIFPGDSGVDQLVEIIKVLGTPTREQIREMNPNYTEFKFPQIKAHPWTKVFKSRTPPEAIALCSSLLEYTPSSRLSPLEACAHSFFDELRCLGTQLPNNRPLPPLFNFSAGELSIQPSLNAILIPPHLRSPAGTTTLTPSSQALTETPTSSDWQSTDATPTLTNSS

[10] = biological target: T3, protein kinases (human kinome) (Homo sapiens, UniProt Q13043); format: cell-based
T3 sequence (Q13043 1-487): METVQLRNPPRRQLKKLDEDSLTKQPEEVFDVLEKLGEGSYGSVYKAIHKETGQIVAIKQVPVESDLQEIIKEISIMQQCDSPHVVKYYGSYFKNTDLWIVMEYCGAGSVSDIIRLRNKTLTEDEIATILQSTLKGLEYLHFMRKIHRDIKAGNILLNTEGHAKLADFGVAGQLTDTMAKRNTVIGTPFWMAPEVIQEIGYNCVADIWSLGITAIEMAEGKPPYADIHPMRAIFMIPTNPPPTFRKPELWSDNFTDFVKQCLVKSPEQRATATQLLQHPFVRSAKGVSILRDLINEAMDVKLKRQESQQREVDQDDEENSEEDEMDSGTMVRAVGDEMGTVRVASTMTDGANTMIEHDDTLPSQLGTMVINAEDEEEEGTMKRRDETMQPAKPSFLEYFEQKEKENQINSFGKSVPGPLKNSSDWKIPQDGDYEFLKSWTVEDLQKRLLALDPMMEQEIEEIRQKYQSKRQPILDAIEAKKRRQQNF

[11] = biological target: T4, protein kinases (human kinome) (Homo sapiens, UniProt O94768); format: cell-based
T4 sequence (O94768 1-372): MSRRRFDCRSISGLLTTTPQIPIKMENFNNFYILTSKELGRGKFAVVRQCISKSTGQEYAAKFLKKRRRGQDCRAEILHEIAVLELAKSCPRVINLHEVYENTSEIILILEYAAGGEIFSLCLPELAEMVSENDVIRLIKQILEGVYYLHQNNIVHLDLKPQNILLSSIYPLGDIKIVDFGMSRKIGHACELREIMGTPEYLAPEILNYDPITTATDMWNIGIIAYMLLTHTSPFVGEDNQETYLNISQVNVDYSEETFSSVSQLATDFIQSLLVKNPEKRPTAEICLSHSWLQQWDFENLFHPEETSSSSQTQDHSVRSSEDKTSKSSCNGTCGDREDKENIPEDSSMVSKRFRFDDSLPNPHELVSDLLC

## Cc1ncsc1-c1ccc([C@H](C)NC(=O)[C@@H]2C[C@@H](O)CN2C(=O)[C@@H](NC(=O)CCOCCOCCNc2nccc(-c3sc(C(C)(C)C)nc3-c3cccc(NS(=O)(=O)c4c(F)cccc4F)c3F)n2)C(C)(C)C)cc1 [DD-03-156, (2S,4R)-1-((S)-2-(3-(2-(2-((4-(2-(tert-butyl)-4-(3-((2,6-difluorophenyl)sulfonamido)-2-fluorophenyl)thiazol-5-yl)pyrimidin-2-yl)amino)ethoxy)ethoxy)propanamido)-3,3-dimethylbutanoyl)-4-hydroxy-N—((S)-1-(4-(4-methylthiazol-5-yl)phenyl)ethyl)pyrrolidine-2-2377 carboxamide]
[1]
  degradation profile (potency and selectivity): potent and selective degradation of only CDK17 and LIMK2; also recorded: exquisite
[2]
  preference for degrading CDK17: strong preference for degrading CDK17
[3]; as stated for the structure in the embodiments
  kinases the bifunctional compound degrades: CDK17, LIMK1, and LIMK2
[3]; kinases significantly downregulated vs DMSO (fold change cutoff −1.25, P-value<0.01), ≤8 h, 0.1-5 μM degrader, 7 cell lines
  Kinase hits: CDK17, LIMK1, LIMK2
[3]; number of degraded kinases per library compound
  Total no. kinase hits: 3

## Nc1ncc(-c2ccc(S(=O)(=O)N(CCCNC(=O)CCOCCOCCOCCOCCOCCNc3cccc4c3C(=O)N(C3CCC(=O)NC3=O)C4=O)C3CC3)cc2F)cc1-c1ccc2c(c1)CCNC2=O (stereo not shown) [WH.9533.153]
[4]; CDK14 (O94921-1), experiment wp017
  logFC: −0.4637
[4]; Experiment wp017
  logFC of CDK14 (O94921-1): −0.4637
[5]
  logFC: −0.7144
[6]; Accession P48730-1, experiment wp017, direction down
  logFC CSNK1D: −0.7788
[6]; Experiment wp017
  logFC of CSNK1D (P48730-1): −0.7788
[7]; Experiment wp017
  logFC of PIM2 (Q9P1W9): −0.4936
[7]; PIM2 (Q9P1W9), experiment wp017
  logFC: −0.4936
[3]; Accession P49841-2, direction down
  logFC GSK3B: −1.317
[3]; GSK3B P49841-2
  logFC GSK3B: −1.317
[8]
  logFC: −1.367
[8]; direction down
  logFC: −1.367
[9]
  logFC: −0.4833
  logFC GSK3A: −0.4833
[10]; Experiment wp017
  logFC of STK4 (Q13043-1): −0.4936
[10]; STK4 (Q13043-1), experiment wp017
  logFC: −0.4936
[11]; Experiment wp017, direction down
  logFC STK17B (O94768): −0.7595
[11]; STK17B (O94768), experiment wp017
  logFC: −0.7595
